{"source": "paper PMC10377541", "about": "“Further Characterization of Fungal Halogenase RadH and Its Homologs” (Biomolecules, 2023)", "key": {"A0A066XG69": {"target": "T1, A0A066XG69 (Colletotrichum sublineola, UniProt A0A066XG69)", "T1 construct": "gene CSUB01_08252; heterologously expressed in E. coli; RadH homolog", "T1 sequence (A0A066XG69 1-512)": "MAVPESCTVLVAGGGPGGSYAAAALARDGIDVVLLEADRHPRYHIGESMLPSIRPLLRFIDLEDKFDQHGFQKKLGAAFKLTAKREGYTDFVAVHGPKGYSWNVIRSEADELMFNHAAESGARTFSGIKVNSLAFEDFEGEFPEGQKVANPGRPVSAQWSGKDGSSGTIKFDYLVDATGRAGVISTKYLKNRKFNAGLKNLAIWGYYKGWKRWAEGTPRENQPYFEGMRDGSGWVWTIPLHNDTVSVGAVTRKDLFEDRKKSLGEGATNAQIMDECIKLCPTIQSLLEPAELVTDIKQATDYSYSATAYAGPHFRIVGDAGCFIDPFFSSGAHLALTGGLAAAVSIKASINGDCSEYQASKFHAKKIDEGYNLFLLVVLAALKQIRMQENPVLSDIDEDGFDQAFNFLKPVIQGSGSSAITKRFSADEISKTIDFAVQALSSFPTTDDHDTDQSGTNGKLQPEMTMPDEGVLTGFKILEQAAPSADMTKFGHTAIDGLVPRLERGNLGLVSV", "assay": "HPLC-MS chlorination assay", "format": "biochemical", "settings": "FAD, Fre, NADH, MgCl2, Tris HCl pH 7.4, 18 h"}, "E3R0Q3": {"target": "T2, E3R0Q3 (Colletotrichum graminicola, UniProt E3R0Q3)", "T2 construct": "gene GLRG_11837; heterologously expressed in E. coli; RadH homolog", "T2 sequence (E3R0Q3 1-512)": "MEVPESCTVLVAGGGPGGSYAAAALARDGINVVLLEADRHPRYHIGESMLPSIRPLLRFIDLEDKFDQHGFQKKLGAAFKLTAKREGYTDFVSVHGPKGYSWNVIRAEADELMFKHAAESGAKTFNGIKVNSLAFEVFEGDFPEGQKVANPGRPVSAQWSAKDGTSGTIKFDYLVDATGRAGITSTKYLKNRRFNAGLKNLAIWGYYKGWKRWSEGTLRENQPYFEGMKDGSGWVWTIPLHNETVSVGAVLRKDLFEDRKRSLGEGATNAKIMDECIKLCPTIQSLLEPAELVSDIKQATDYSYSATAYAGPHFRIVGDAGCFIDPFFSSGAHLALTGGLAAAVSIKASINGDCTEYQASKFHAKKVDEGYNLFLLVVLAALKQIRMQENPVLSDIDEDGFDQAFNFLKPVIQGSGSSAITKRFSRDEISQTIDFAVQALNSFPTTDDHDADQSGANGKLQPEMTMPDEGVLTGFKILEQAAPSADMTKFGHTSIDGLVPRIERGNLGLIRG", "assay": "HPLC-MS chlorination assay", "format": "biochemical", "settings": "FAD, Fre, NADH, MgCl2, Tris HCl pH 7.4, 18 h"}, "RadH": {"target": "T3, RadH (Floropilus chiversii, UniProt C5H881)", "T3 construct": "codon-optimized synthetic gene in pET28, expressed in E. coli T7 Express, Ni-NTA purified; two monomers in the asymmetric unit", "T3 sequence (C5H881 whole entry, the tested form may be a part)": "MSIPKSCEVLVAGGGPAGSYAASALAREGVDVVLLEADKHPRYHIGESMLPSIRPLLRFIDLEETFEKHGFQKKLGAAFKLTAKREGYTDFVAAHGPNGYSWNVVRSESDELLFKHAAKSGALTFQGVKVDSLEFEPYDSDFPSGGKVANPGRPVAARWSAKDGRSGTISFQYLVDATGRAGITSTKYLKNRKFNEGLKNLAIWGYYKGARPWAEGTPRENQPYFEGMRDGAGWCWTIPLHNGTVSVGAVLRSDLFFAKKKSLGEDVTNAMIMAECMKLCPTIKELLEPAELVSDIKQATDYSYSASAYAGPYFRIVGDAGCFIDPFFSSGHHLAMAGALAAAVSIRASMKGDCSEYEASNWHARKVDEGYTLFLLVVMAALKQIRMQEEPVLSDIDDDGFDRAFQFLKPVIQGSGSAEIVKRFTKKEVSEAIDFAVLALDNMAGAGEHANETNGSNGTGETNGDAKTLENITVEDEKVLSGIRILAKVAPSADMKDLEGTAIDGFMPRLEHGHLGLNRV", "assay": "X-ray crystallography, […] Å", "settings": "FAD bound in the flavin-binding domain; chlorine atom in adjacent space; crystals pH 6.5"}}, "data": [{"smiles": "Oc1ccc2cnccc2c1", "note": "[6-hydroxyisoquinoline]", "values": [{"measurement": "HPLC-MS chlorination assay", "setting": "A0A066XG69", "result": "A0A066XG69 demonstrated higher conversion compared to RadH or E3R0Q3"}, {"measurement": "HPLC-MS chlorination assay", "setting": "E3R0Q3", "result": "E3R0Q3 (Colletotrichum graminicola) and A0A066XG69 (Colletotrichum sublineola), showed activity with standard 6-hydroxyhisoquinoline substrates"}]}, {"smiles": "Cc1cc2nc3c(=O)[nH]c(=O)nc-3n(C[C@H](O)[C@H](O)[C@H](O)COP(=O)(O)OP(=O)(O)OC[C@H]3O[C@@H](n4cnc5c(N)ncnc54)[C@H](O)[C@@H]3O)c2cc1C", "note": "[FAD]", "values": [{"measurement": "X-ray crystallography, 2.4 Å", "setting": "RadH", "result": "Each monomer consists of a conserved Flavin-binding domain with FAD bound"}]}]}
